Data from patent US20040253268A1, “Biological compositions and methods for treatment of uterine cancer” (priority 2003, published 2004).

Experiments:
[1] = system: uterine cancer cell line CRL-1622; test: Survival in 615 strain mouse model of human uterine cancer (Example 7); type: in vivo; settings: 2AY/2NY 0.5 ml/day oral; for Number of live animals remaining in the groups after 30 days of treatment: 30 mice per group, 2MMC 1.2 mg/kg/day s.c.
Procedure: The following example illustrates the benefit of a biological composition of the invention in a model of human uterine cancer in a 615 strain mouse. The survival time of mice after tumor injection and treatment was studied.
(§1) The biological composition comprising 10^8 cells per ml of activated and conditioned yeast cells of the strain Saccharomyces carlsbergensis Hansen strain AS2.605 was prepared by the methods described in Section 5.1 and subsections therein.
(§2) The animals were prepared in a similar manner as described in Section 6.1. 7.2 Experimental Design The mice injected with tumor cells were immediately divided into 4 experimental groups of ten mice per group and one control group. The four experimental groups were triplicated (i.e., using a total of 120 mice in the experimental groups). In group 2AY, the mice received 0.5 ml of the biological composition once per day. In group 2NY, the mice received 0.5 ml of the untreated yeast cells once per day. In group 2MMC, the mice were injected subcutaneously with 1.2 mg of mitomycin C (MMC) per kg body weight per day. In group 2CK1, the mice received 0.5 ml of physiological saline once per day.
(§3) The mice received the biological composition, untreated yeast cells, MMC or saline on the same day as the tumor cells were transplanted. The mice in group 2CK2 also started receiving saline on the same day as the other four groups. The biological composition, untreated yeast cells and saline were administered orally by a feeding tube and the MMC by subcutaneous injection for 30 consecutive days. The mice were observed over 6 months from the day of tumor inoculation and survival was recorded. The weight of the mice and the weight of the tumor were determined by standard techniques.

[2] = system: uterine cancer cell line CRL-1622; test: Tumor growth in 615 strain mouse model of human uterine cancer (Example 6); type: in vivo, 615 mice; settings: day 31 after tumor inoculation; 30 days dosing; AY/NY 0.3 ml/day oral, MMC 0.8 mg/kg/day s.c.
Source text: The following example illustrates the benefit of a biological composition of the invention in a 615 strain mouse model of human uterine cancer. The growth of the tumor in the mice was studied.
Murine transplantable uterine cancer type CRL-1622 closely resembles the human uterine cancer pathology. The uterine cancer cell line CRL-1622 can be ordered from the American Type Culture Collection.
as §1
(§4) The animals used to generate the uterine cancer cells for the experiments were female 615 mice (obtainable from the Chinese Academy of Military Medical Sciences, Beijing, China), 4 to 6 months, having an average body weight of about 20 to 22 gram. About 1.2×10^7 viable tumor cells of the uterine cancer cell line CRL-1 622 (obtainable from the Cancer Institute, Chinese Academy of Medical Sciences, Beijing, China) in about 0.2 ml culture suspension were injected subcutaneously into the animals. […]
The mice received the biological composition, untreated yeast cells, MMC or saline on the same day as the tumor cells were transplanted. […] The weight of the mice and the weight of the tumor were determined by standard techniques.

[3] = system: uterine cancer cell line HTB-114; test: Survival in kun ming mouse model of human uterine cancer (Example 9); type: in vivo; settings: 2AY/2NY 0.5 ml/day oral; for Number of live animals remaining in the groups after 30 days of treatment: 30 mice per group, 2VCR 4.5 mg/kg/day i.v.
Procedure: The following example illustrates the benefit of a biological composition of the invention in a kun ming mouse model of human uterine cancer. The survival time of mice after tumor injection and treatment was studied.
The biological composition comprising 10^8 cells per ml of activated and conditioned yeast cells of the strain Saccharomyces cartsbergensis Hansen strain AS2.605 was prepared by the methods described in Section 5.1 and subsections therein.
The animals were prepared in a similar manner as described in Section 8.1.
as §2, with “The” for “The animals were prepared in a similar manner as described in Section 6.1. 7.2 Experimental Design The”, “2VCR,” for “2MMC,”, “intravenously” for “subcutaneously”, “4.5” for “1.2”, “[…] (VCR)” for “mitomycin C (MMC)”
as §3, with “VCR” for “MMC”, “intravenous” for “subcutaneous”

[4] = system: uterine cancer cell line HTB-114; test: Tumor growth in kun ming mouse model of human uterine cancer (Example 8); type: in vivo; settings: day 31 after tumor inoculation; 30 days dosing; AY/NY 0.3 ml/day oral, VCR 3 mg/kg/day i.v.
Source text: The following example illustrates the benefit of a biological composition of the invention in a kun ming mouse model of human uterine cancer. The growth of the tumor in the mice was studied.
Murine transplantable uterine cancer type HTB-114 closely resembles the human uterine cancer pathology. The uterine cancer cell line HTB-114 can be ordered from the American Type Culture Collection.
as §1
as §4, with “kun ming mouse” for “615 mice”, “5” for “4”, “HTB-114” for “CRL-1 622”
The mice received the biological composition, untreated yeast cells, VCR or saline on the same day as the tumor cells were transplanted. […] The weight of the mice and the weight of the tumor were determined by standard techniques.

[5] = 0 month after cessation of treatment
[6] = 1 month after cessation of treatment
[7] = 2 months after cessation of treatment
[8] = 3 months after cessation of treatment
[9] = 4 months after cessation of treatment
[10] = 5 months after cessation of treatment
[11] = 6 months after cessation of treatment
[12] = surviving mice after 6 months observation, 2MMC 1.2 mg/kg/day s.c. for 30 days
[13] = surviving mice after 6 months observation, 2VCR 4.5 mg/kg/day i.v. for 30 days

SMILES: CO[C@@]12[C@H](COC(N)=O)C3=C(C(=O)C(C)=C(N)C3=O)N1C[C@@H]1N[C@@H]12 [MMC, mitomycin C]
- Number of live animals remaining in the groups after 30 days of treatment [1, 5]: 30
- Number of live animals remaining in the groups after 30 days of treatment [1, 6]: 28
- survival time ([1]; 2MMC 1.2 mg/kg/day s.c. for 30 days, observed over 6 months): all died during the experiment
- Number of live animals remaining in the groups after 30 days of treatment [1, 7]: 26
- Number of live animals remaining in the groups after 30 days of treatment [1, 8]: 18
- Number of live animals remaining in the groups after 30 days of treatment [1, 9]: 7
- Number of live animals remaining in the groups after 30 days of treatment [1, 10]: 0
- Number of live animals remaining in the groups after 30 days of treatment [1, 11]: 0
- mean weight of mice and standard deviation [1, 12]: all animals dead
- mean weight of tumor nodules and standard deviation [1, 12]: all animals dead
- mean weight of mice and standard deviation [2]: 18.3 ± 3.1 g
- mean weight of tumor nodules and standard deviation [2]: 3.56 ± 2.32 mg

SMILES: CC[C@]1(O)C[C@@H]2CN(CCc3c([nH]c4ccccc34)[C@@](C(=O)OC)(c3cc4c(cc3OC)N(C)[C@H]3[C@@](O)(C(=O)OC)[C@H](OC(C)=O)[C@]5(CC)C=CCN6CC[C@]43[C@@H]65)C2)C1 [VCR, vinblastine]
- Number of live animals remaining in the groups after 30 days of treatment [3, 5]: 30
- Number of live animals remaining in the groups after 30 days of treatment [3, 6]: 28
- survival time ([3]; 2VCR 4.5 mg/kg/day i.v. for 30 days, observed over 6 months): all died during the experiment
- Number of live animals remaining in the groups after 30 days of treatment [3, 7]: 19
- Number of live animals remaining in the groups after 30 days of treatment [3, 8]: 11
- Number of live animals remaining in the groups after 30 days of treatment [3, 9]: 3
- Number of live animals remaining in the groups after 30 days of treatment [3, 10]: 0
- Number of live animals remaining in the groups after 30 days of treatment [3, 11]: 0
- mean weight of mice and standard deviation [3, 13]: all animals dead
- mean weight of tumor nodules and standard deviation [3, 13]: all animals dead
- mean weight of mice and standard deviation [4]: 18.3 ± 3.3 g
- mean weight of tumor nodules and standard deviation [4]: 4.36 ± 2.45 g
